Results published in patent publication US20210340563A1, “DONOR T-CELLS WITH KILL SWITCH” (CSL BEHRING LLC, priority 2018, published 2021).

Columns and labels:
CEM cells [1] = experiment: negative selection with MTX or MPA on CEM cells; type: cell-based; conditions: 1 μM of MPA or 0.3 μM of MTX or 10 μM of MPA; for GFP-population of transduced cells under MPA or MTX: CEM experiment
K562 cells [2] = experiment: ex vivo 6TG selection of HPRT knockdown/knockout K562 cells; type: cell-based, human
Experimental: These initial preliminary experiments were performed in K562 cells (human immortalized myelogenous leukemia line) (rsh7-GFP=short hairpin to HPRT/GFP lentiviral vector to knockdown HPRT; nanoRNP-HPRT=CRISPR/Cas9 ribonucleoprotein nanocapsules to knockout HPRT).
K562 cells were transduced with an expression vector including a nucleic acid sequence designed to knockdown HPRT and a nucleic acid sequence encoding the green fluorescent protein (GFP) (MOI=1/2/5); or were transfected with a nanocapsule including CRISPR/Cas9 and a sgRNA to knockout HPRT (100 ng/5×10^4 cells) at day zero (0). 6TG was added into the medium from day 3 through day 14. The medium was refreshed every 3 to 4 days. GFP was analyzed on a flow machine and the InDel % as analyzed with a T7E1 assay.

CEM cells [3] = experiment: 6TG selection of HPRT knockdown/knockout CEM cells; type: cell-based
Experimental: CEM cells were transduced with an expression vector including a nucleic acid sequence designed to knockdown HPRT and a nucleic acid sequence encoding the green fluorescent protein or transfected with a nanocapsule including CRISPR/Cas9 and a sgRNA to HPRT at day 0. 6TG was added into the medium from day 3 to day 17. The medium was refreshed every 3 to 4 days. GFP as analyzed on a flow machine and the InDel % is analyzed by a T7E1 assay. FIG. 13A illustrates that the GFP+ population of transduced K562 cells increased from day 3 to day 17 under treatment of 6TG while GFP+ population was almost steady without. […] It should be noted that 6TG selection process occurred faster on HPRT knockout cells rather than HPRT knockdown cells (MOI=1) at the same concentration of 6TG from day 3 to day 17.

Jurkat cells [4] = experiment: 6-TG resistance of HPRT knockout Jurkat cells, luminescence (ATP detection) cell viability; type: cell-based
Experimental: (§1) Jurkat cells were electroporated with a ribonucleoprotein (RNP) complex containing guide RNA (gRNA; GS-4; designated IDT-4) together with the Cas9 and tracrRNA. Cells which were confirmed to be transfected with the gRNA via tracr RNA were purified using fluorescence activated cells sorting (FACS) and subsequently cultured for 72 hours. Increasing concentrations of 6-thioguanine (6-TG) were then administered to the transduced cultured cells to assess resistance. Wild type (unmodified) Jurkat cells were used as a control.
Luminescence (ATP detection) was used to assess cell viability.

K562 cells [5] = experiment: negative selection with MTX on K562 cells; type: cell-based, human; conditions: 0.3 μM of MTX, day 0 to day 14
Experimental: Transduced or transfected K562 cells (such as those from Example 1) were cultured with or without MTX from day 0 to day 14. The medium was refreshed every 3 to 4 days. GFP was analyzed on a flow machine and the InDel % was analyzed by T7E1 assay. […] On the other hand, the population of cells was steady without MTX. FIG. 14B illustrates that the transfected K562 cells were eliminated under treatment with 0.3 μM of MTX at a faster pace as compared with the HPRT-knockdown population.
K562 cells were transduced with either (i) a TL20cw-GFP virus soup at dilution factor of 16, (ii) a TL20cw-Ubc/GFP-7SK/sh734 virus soup at a dilution factor of 16 (one sequentially encoding GFP and a shRNA designed to knockdown HPRT); or (iii) a TL20cw-7SK/sh734-UBC/GFP virus soup at a dilution factor of 16 (one sequentially encoding a shRNA designed to knockdown HPRT and GFP) (see FIG. 16). K562 cells were also transduced by a TL20cw-7SK/sh734-UBC/GFP virus soup at a dilution factor of 1024 (one encoding a nucleic acid encoding a shRNA designed to knockdown HPRT) (also shown in FIG. 16). Three days following transduction, all cells were cultured with medium containing 0.3 μM of MTX 3. […] The relative sh734 expression per vector copy number (VCN) for sh734-GFP-transduced cells and GFP-sh734-transduced cells were measured.

HPRT protein = experiment: Western blot for HPRT protein in Jurkat cells; type: cell-based; conditions: modified Jurkat cells; actin loading control
Experimental: as §1
Unmodified (WT) and IDT-4 modified Jurkat cells were also analyzed for HPRT protein using Western blot (see FIG. 25). […] Actin protein detection (bottom panel) was used as a protein loading control.

Jurkat cells [6] = experiment: methotrexate dose response of HPRT knockout Jurkat cells; type: cell-based; conditions: MTX 0.00625 and 0.0125 μM, cultured for 5 days
Experimental: Jurkat cells (unmodified; WT) were cultured with increasing concentrations of methotrexate (MTX) to determine the MTX dosage window required to kill WT cells (see FIG. 28). A dose range of between 0.00625 and 0.025 μM MTX was selected for subsequent assessment of HPRT Knockout (IDT-4 modified) Jurkat cells.
Dose response of HPRT Knockout (IDT-4 modified) Jurkat cells to MTX was compared to unmodified Jurkat cells (WT) to determine sensitivity to MTX (see FIG. 29).

[7] = 900 nM of 6TG compared with 300/600 nM of 6TG

Q: What does the source list for `COc1c(C)c2c(c(O)c1C/C=C(\C)CCC(=O)O)C(=O)OC2` [MPA, mycophenolic acid]?
A: HPRT knockout population of CEM cells under MPA or MTX (CEM cells [1]): eliminated at a faster pace; GFP-population of transduced cells under MPA or MTX (CEM cells [1]): decreased

Q: For `Nc1nc2nc[nH]c2c(=S)[nH]1` [Vector 6TG, 6-thioguanine], which “speed of selection of HPRT knockout K562 cells” value (K562 cells [2]; [7]) is on record?
A: The value was “faster selection”.

Q: And the “HPRT knockout population of K562 cells under treatment with 6TG (InDel %, T7E1 assay)” value (K562 cells [2]; CRISPR/Cas9 nanocapsule transfected, day 3 to 14)?
A: The value was “increased”.

Q: And the “GFP+ population of transduced K562 cells under treatment of 6TG” value (K562 cells [2]; HPRT knockdown vector with GFP, day 3 to day 14)?
A: The value was “increased”.

Q: What about the “speed of selection of HPRT knockout CEM cells” value (CEM cells [3]; [7]) of the same molecule?
A: The value was “faster selection”.

Q: What about the “GFP+ population of transduced cells under treatment of 6TG” value (CEM cells [3]; CEM experiment, day 3 to day 17) of the same molecule?
A: The value was “increased”.

Q: And the “HPRT knockout population of CEM cells under treatment of 6TG” value (CEM cells [3]; day 3 to 17)?
A: The value was “increased”.

Q: What about the “cell viability (luminescence) of unmodified (wild type) Jurkat cells” value (Jurkat cells [4]; increasing concentrations of 6-TG) of the same molecule?
A: Its value is “decrease in cell viability”.

Q: How did the “GFP-population of transduced K562 cells under MTX” value (K562 cells [5]) turn out when `CN(Cc1cnc2nc(N)nc(N)c2n1)c1ccc(C(=O)N[C@@H](CCC(=O)O)C(=O)O)cc1` [MTX, methotrexate] was run?
A: Its value is “decreased”.

Q: What about the “transfected (HPRT knockout) K562 cells under MTX” value (K562 cells [5]) of the same molecule?
A: Its value is “eliminated”.

Q: And the “HPRT knockout population of CEM cells under MPA or MTX” value (CEM cells [1])?
A: The value was “eliminated at a faster pace”.

Q: What about the “GFP-population of transduced cells under MPA or MTX” value (CEM cells [1]) of the same molecule?
A: The value was “decreased”.

Q: Which “cell viability (luminescence) of gRNA-modified Jurkat cells with increasing 6-TG” value (Jurkat cells [4]; 6-TG tested up to 10 uM) does the source give for “IDT-4: lead HPRT guide RNA, SEQ ID NO: 36, GGTTATGACCTTGATTTATT; used as Cas9 RNP (used with tracrRNA as Cas9 RNP, further chemistry not given here)” here?
A: Its value is “resistance to increasing doses of 6-TG”.

Q: And the “HPRT protein level by Western blot” value (HPRT protein)?
A: Its value is “undetectable levels of HPRT”.

Q: What about the “sensitivity to MTX compared to wild type Jurkat cells” value (Jurkat cells [6]) of the same molecule?
A: Its value is “increased sensitivity to MTX”.
